Source: US8697706B2 (priority 2011, dated 2014)

System: HCV pseudoparticles (genotype 1a HCV E1 and E2 envelope, H77C isolate)
Experiment: microbe, parasite or virus in culture
Type: cell-based, HCV genotype 1a (H77C isolate)
Conditions: Hepatitis C virus, Huh-7, 48 h, HCV pseudoparticle entry into Huh7 cells, luciferase measured 2 days after infection

## CC1(C)CNCCCOc2ccc(cc2)CNc2nc(cc(OCC(F)(F)F)n2)Nc2ccc(cc2)C(=O)NC1 [Compound 3001]
Average of duplicate
  EC50: 106 nM
Class symbol
  EC50: 100 to 1000 nM

## CC1(C)CNCCCOc2ccc(cc2)CNc2cc(OCC(F)(F)F)nc(n2)Nc2ccc(cc2)C(=O)NC1 [Compound 3002]
Class symbol
  EC50: < 100 nM
